Consider six compounds from patent US5096925A, “N-substituted butyramide derivatives” (Ciba-Geigy Corporation, priority 1990, dated 1992).

Structures are written as SMILES.

A short description of test [1]: hot plate test for analgesia in the mouse (mean response latency). The format is in vivo. The settings on record: for dose that increases the mean response latency in the hot plate test: mice, intracerebroventricular administration. An excerpt: The analgesic activity is demonstrable by potentiation of the analgesic effects of enkephalin and derivatives thereof, and by classical analgesic tests, such as the phenyl-p-benzoquinone induced writing test [J. Pharmacol. Exp. Therap. 125, 237 (1959)] and the hot plate test in the mouse [J. Pharmaol. Exp. Therap. 107, 385 (1953)].
The analgesic activity can be measured by the hot-plate test method in the mouse as follows and essentially as described in J. Pharmacol. Exp. Therap. 107, 385 (1953).
The compound is administered intravenously or intracerebroventricularly 15 minutes prior to the measurement of the response latency. Male CF, (Charles River) mice (20 g) are allowed food and water ad libitum up to the time of testing. The hot plate test for analgesia utilizes an apparatus with an electrically heated, thermostatically controlled copper plate (Analgesia Meter). A Plexiglas cylinder, 25.5 cm×16 cm (inner diameter) and open at both ends, confines the mice to the central area of the hot plate. The surface temperature is maintained at 55°±0.5° C. Response latency is recorded as the time (seconds) from contact with the hot plate until a jump occurs or at 240 seconds if no response occurs within this time. Animals are individually tested at 15 minutes following intravenous or intracerebroventricular (ICV) injection. Intracerebroventricular injections into the lateral ventricle are carried out according to the method of Haley and McCormick, as described in Brit. J. Pharmacol. 12; 12, 1957.
The mean response latency and standard error are calculated. Significance is determined using Student's unpaired t-test, 2-tailed comparison.

In test [2] the test system is enkephalinase. In words: in vivo potentiation of the analgesic effect of met-enkephalin (enkephalinase inhibitory activity in vivo). Set-up: species or system mouse. The settings on record: met-enkephalin (20 ug), intracerebroventricular administration. On the procedure: (§1) The enkephalinase inhibitory activity can be determined in vivo, e.g. by measuring the potentiation of the analgesic activity of intracerebrally administered D-Ala^2 -met^5 -enkephalinamide or met-enkephalin in mice. The enkephalinase inhibitory activity is also determined in vivo by measuring the increase in endogenous brain enkephalin levels, or by direct measurement of striatum enkephalinase activity in mice.

Test [3] has as its target T1, enkephalinase (Rattus norvegicus, UniProt P07861).
T1 construct: synaptic membrane preparation from rat striatum; from tissue; host or cells: rat striatum, synaptic membrane preparation
T1 sequence (P07861 1-750): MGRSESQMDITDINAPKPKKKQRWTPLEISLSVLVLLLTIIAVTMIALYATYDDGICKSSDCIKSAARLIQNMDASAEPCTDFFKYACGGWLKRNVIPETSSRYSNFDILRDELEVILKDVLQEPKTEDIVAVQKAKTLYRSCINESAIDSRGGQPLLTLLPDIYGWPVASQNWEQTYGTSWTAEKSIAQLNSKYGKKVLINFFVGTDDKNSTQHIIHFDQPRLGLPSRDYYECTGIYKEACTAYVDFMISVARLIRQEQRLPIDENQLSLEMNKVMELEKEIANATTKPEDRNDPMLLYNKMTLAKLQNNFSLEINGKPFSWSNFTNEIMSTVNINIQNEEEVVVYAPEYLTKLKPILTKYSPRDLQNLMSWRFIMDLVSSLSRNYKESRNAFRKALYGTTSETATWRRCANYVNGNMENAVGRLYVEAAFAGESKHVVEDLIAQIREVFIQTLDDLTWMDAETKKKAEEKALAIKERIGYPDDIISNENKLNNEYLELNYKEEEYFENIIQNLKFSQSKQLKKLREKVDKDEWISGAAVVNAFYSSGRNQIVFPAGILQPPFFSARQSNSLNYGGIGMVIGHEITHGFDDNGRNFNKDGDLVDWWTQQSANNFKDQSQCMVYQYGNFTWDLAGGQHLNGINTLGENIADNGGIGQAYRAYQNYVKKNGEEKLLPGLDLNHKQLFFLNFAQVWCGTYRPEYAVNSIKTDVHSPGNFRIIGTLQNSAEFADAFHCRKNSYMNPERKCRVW
Put plainly: in vitro inhibition of enkephalinase (3H-Tyr-gly-gly generation from 3H-Leu-enkephalin, synaptic membranes from rat striatum). It counts as biochemical. The settings on record: rat striatum synaptic membrane preparation, pH 6-5, 15 minutes at 30° C., 10^-6 M Bestatin. As for the experimental part: The enkephalinane inhibitory activity is determined in vitro by an adaptation of the method of Alstein et al. as described in Life Sciences 28, 185 (1981), as follows:
A mixture of a solution of the test compound in distilled water or distilled water and ethanol diluted with pH 6-5 buffer and of a synaptic membrane preparation from rat striatum is incubated at pH 6-5 with ^3 H-Leu-enkephalin for 15 minutes at 30° C., in the presence of 10^-6 M Bestatin (to inhibit aminopeptidase activity). The reaction is stopped by the addition of 30% acetic acid and the reaction product ^3 H-Tyr-gly-gly is separated from unreacted ^3 H-Leu-enkephalin on a Porapak O column followed by a Cu^++ -chelex column. The ^3 H-Tyr-gly-gly is counted by liquid scintillation. The amount of ^3 H-Tyr-gly-gly generated in the presence of test compound as compared to control is then calculated. An IC50 value representing the concentration of test compound required for 50% inhibition of ^3 H-Tyr-gly-gly generation is then determined graphically.

Test [4] has as its system enkephalinase. Put plainly: in vivo potentiation of the analgesic effect of D-Ala^2-Met^5-enkephalinamide (enkephalinase inhibitory activity in vivo). The settings on record: s.c. Set-up: species or system mouse. As for the experimental part:
as §1

Consider `CCOC(=O)[C@@H](Cc1ccccc1)C[C@H](Cc1ccccc1)C(=O)NCCC(=O)O` (relative stereo) [N-[4-ethoxycarbonyl-(R*,R*)-2,4-dibenzylbutyryl]-3-aminopropionic acid], for which, in test [1], the “dose that increases the mean response latency in the hot plate test” value was roughly 0.03 µg. Moreover, the “dose that potentiates the analgesic effect of met-enkephalin” value in the test with enkephalinase [2] was “about 0.01 ug”.
The term IC50 denotes the concentration at which inhibition is half-maximal. `O=C(O)CCNC(=O)[C@@H](Cc1ccccc1)C[C@H](Cc1ccccc1)C(=O)O` (relative stereo) [N-[(R*,R*)-2,4-dibenzyl-4-carboxybutyryl]-3-aminopropionic acid]: on enkephalinase [3], the concentration for half-maximal inhibition (IC50) was roughly 20 nM.
Regarding `O=C(O)CCCNC(=O)[C@@H](Cc1ccccc1)C[C@H](Cc1ccccc1)C(=O)O` (relative stereo) [N-[(R*,R*)-2,4-dibenzyl-4-carboxybutyryl]-4-aminobutyric acid], the “dose that increases the mean response latency in the hot plate test” value in test [1] was “about 0.1 ug”. For the same compound, the IC50 against enkephalinase [3] was roughly 20 nM.
On to `CC1(C)O[C@@H]2[C@@H](COC(=O)CCNC(=O)[C@H](Cc3ccccc3)C[C@@H](Cc3ccccc3)C(=O)O)OC(=O)[C@@H]2O1` [17/6, 2,3-O-isopropylidene-D-ribono-(1,4-lactone)-5-yl N-(2S,4S-dibenzyl-4-carboxybutyryl)-3-aminopropionate], for which, in the test on enkephalinase [4], the “dose that potentiates the analgesic effect of D-Ala^2-Met^5-enkephalinamide” value is on record as 30 mg/kg.
As a reminder, the minimal effective dose is the smallest amount tested that counted as effective. In the case of `CC1(C)O[C@H]2O[C@H]([C@H]3COC(C)(C)O3)[C@H](OC(=O)CCNC(=O)[C@H](Cc3ccccc3)C[C@@H](Cc3ccccc3)C(=O)O)[C@H]2O1` [Example 17/10, 1,2:5,6-di-O-isopropylidene-D-glucofuranos-3-yl N-(2S,4S-dibenzyl-4-carboxybutyryl)-3-aminopropionate], the minimal effective dose in test [1] (iv, 0.25 h, mouse, effective at the dose "and lower") was no more than 30 mg/kg.
`O=C(O)CCNC(=O)[C@H](Cc1ccccc1)C[C@@H](Cc1ccccc1)C(=O)O` [N-(2S,4S-dibenzyl-4-carboxybutyryl)-3-aminopropionic acid] gave an IC50 on enkephalinase [3] of roughly 8 nM.
